One may read the EC50 as the concentration giving half of the maximal effect. Low values mean greater potency, high ones weaker potency. Usually IC50 stands for the concentration that inhibits the measured activity by half.

In test [1] the target is T1, androgen receptor (hAR) (Homo sapiens (Human), UniProt P10275). The test is described as follows: Test of transcriptional activity (hAR / ARE-Luc dual-luciferase assay in CHO cells). Particulars: EC50 [nM] (mean ± SE), CHO cells with hAR and ARE-Luc, 24 hours; 10 nM DHT = 100%. It is filed as cell-based. In a few lines: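 Compound at 0.1˜10,000 nM applied for 24 h to CHO cells carrying transfected human AR and an ARE-driven luciferase reporter. Cells were grown 24 h before transfection; readout was dual-luciferase luminescence.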
T1 sequence (P10275 whole entry): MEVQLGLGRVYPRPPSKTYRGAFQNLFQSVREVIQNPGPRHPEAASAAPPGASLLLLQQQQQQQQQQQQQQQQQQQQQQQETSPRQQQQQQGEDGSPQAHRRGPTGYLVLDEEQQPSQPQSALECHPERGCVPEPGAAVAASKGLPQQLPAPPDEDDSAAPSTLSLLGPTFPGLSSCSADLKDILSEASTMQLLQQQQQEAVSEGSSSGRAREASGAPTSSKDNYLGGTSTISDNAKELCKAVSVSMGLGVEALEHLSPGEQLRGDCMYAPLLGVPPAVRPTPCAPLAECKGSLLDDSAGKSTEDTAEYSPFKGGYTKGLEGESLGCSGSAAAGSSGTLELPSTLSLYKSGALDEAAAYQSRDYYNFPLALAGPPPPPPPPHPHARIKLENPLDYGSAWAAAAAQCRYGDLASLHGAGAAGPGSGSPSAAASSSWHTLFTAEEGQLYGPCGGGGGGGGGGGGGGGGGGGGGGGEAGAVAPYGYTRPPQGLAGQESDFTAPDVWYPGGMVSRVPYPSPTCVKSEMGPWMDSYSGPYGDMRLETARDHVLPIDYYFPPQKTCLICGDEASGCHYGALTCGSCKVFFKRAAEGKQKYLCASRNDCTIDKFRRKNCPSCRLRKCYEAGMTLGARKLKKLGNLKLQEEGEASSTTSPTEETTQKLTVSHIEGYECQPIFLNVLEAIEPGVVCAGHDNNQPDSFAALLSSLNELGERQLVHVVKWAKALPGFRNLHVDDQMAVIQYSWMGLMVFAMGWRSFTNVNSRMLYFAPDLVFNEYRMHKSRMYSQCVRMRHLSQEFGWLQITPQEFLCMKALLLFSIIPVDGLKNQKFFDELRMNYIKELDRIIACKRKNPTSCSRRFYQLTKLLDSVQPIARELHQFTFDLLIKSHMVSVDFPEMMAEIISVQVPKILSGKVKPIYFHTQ

Test [2] deals with T1, androgen receptor (hAR). Kind of test: biochemical. Format: binding. Particulars: 1 nM [3H]MIB, hAR-transfected COS-7 cells, 2 hours; read-out: IC50 [nM] (mean ± SE). The protocol: In order to examine binding ability of the agonists of the present invention to androgen receptors, the following in-vitro experiment was performed. African green monkey kidney fibroblast-like cell line, COS-7 (ATCC, #CRL-1651) was seeded in a 48-well plate at a density of 2.5×10^4 cells/well, and cultured for 24 hours. Then, a plasmid hAR-mixed medium was added thereto. […] Thereafter, the cells were lysed and the amount of [3H]MIB bound to the intracellular androgen receptors was measured using a radiation dosimeter.

Test [3] relates to castrated male rats. The test is described as follows: Efficacy test in castrated male rat (Hershberger assay). It is filed as in vivo, SD (Sprague-Dawley) rat. Particulars: castrated male SD rats, oral once a day for 14 days. How it is done: SD (Sprague-Dawley) male rats (7-week-old) were castrated under ketamine/xylazine anesthesia, and 5 rats were randomly assigned to one group. From the next day, the agonists were dissolved in a vehicle solution and orally administered at a dose of 5 ml per kg once a day for 14 days. As the vehicle, DMSO, Co-solvent, and DW were prepared at a ratio of 4:80:16 (v/v/v), and Co-solvent was prepared by mixing PEG400, Ethanol, and Tween 80 at a ratio of 85:10:5 (v/v/v). 24 hours after last administration of the drug, their body weight was measured and killed. Thereafter, levator ani muscle, ventral prostate, and seminal vesicles were removed and weighed (Hershberger assay). The following Table 6 represents the result of the efficacy test in castrated male rats.

`CC(=O)Nc1ccc(OC[C@@H]2CN(c3ccc(C#N)c(C(F)(F)F)c3)[C@@H](C(F)(F)F)O2)cc1` [Example 25, N-(4-(((2R,5S)-3-(4-cyano-3-(trifluoromethyl)phenyl)-2-(trifluoromethyl)oxazolidin-5-yl)methoxy)phenyl)acetamide] showed an EC50 in test [1] of 0.7 nM. The IC50 in test [2] turned out to be 8.5 nM. Moreover, the “levator ani muscle weight % relative to intact control group” value is given as 6.7 ± 1.6% in test [3] (0.01 mg/kg); 8.4 ± 1.5% in test [3] (0.03 mg/kg); 26.5 ± 5.8% in test [3] (0.1 mg/kg); 38.5 ± 4.8% in test [3] (0.3 mg/kg); 61.1 ± 6.3% in test [3] (1 mg/kg); 79.8 ± 6.7% in test [3] (3 mg/kg). Besides, the “seminal vesicles weight % relative to intact control group” value in test [3] (0.01 mg/kg) was determined as 0.9 ± 0.2%; in test [3] (0.03 mg/kg), 0.7 ± 0.2%; in test [3] (0.1 mg/kg), 0.9 ± 0.2%; in test [3] (0.3 mg/kg), 3.4 ± 0.4%; in test [3] (1 mg/kg) it was 4.7 ± 1.2%; in test [3] (3 mg/kg) it was 8.7 ± 1.6%. Besides, the “ventral prostate weight % relative to intact control group” value worked out at 1.8 ± 0.3% in test [3] (0.01 mg/kg); 1.0 ± 0.4% in test [3] (0.03 mg/kg); 3.2 ± 0.9% in test [3] (0.1 mg/kg); 4.8 ± 1.6% in test [3] (0.3 mg/kg); 10.9 ± 3.4% in test [3] (1 mg/kg); 12.7 ± 2.5% in test [3] (3 mg/kg).
The compound `N#Cc1ccc(OC[C@@H]2CN(c3ccc(C#N)c(C(F)(F)F)c3)[C@@H](C(F)(F)F)O2)cc1` [Example 19, 4-((2R,5S)-5-((4-cyanophenoxy)methyl)-2-(trifluoromethyl)oxazolidin-3-yl)-2-(trifluoromethyl)benzonitrile] gave an EC50 in test [1] of 1 nM. The IC50 in test [2] was 7.6 nM. Besides, the “levator ani muscle weight % relative to intact control group” value is recorded as 7.2 ± 4.3% in test [3] (0.3 mg/kg); 45.9 ± 5.8% in test [3] (1 mg/kg); 70.6 ± 6.6% in test [3] (3 mg/kg); 63.9 ± 4.8% in test [3] (10 mg/kg); 78.4 ± 11.0% in test [3] (30 mg/kg); 68.3 ± 7.3% in test [3] (100 mg/kg). For the same compound, the “seminal vesicles weight % relative to intact control group” value is given as 4.8 ± 1.3% in test [3] (0.3 mg/kg); 78.2 ± .1% in test [3] (1 mg/kg); 17.3 ± 5.6% in test [3] (3 mg/kg); 22.9 ± 4.3% in test [3] (10 mg/kg); 33.4 ± 2.0% in test [3] (30 mg/kg); 36.4 ± 9.2% in test [3] (100 mg/kg). Also, the “ventral prostate weight % relative to intact control group” value in test [3] (0.3 mg/kg) was 1.7 ± 0.6%; in test [3] (1 mg/kg) it was 10.2 ± 3.9%; in test [3] (3 mg/kg), 11.4 ± 3.0%; in test [3] (10 mg/kg) it was 14.4 ± 2.7%; in test [3] (30 mg/kg), 18.3 ± 4.5%; in test [3] (100 mg/kg) it was 18.0 ± 5.2%.

Values taken from patent US9809583B2 (priority 2014, dated 2017).
